The conditions of data set [1]: relative to cortisol; cited from earlier work.
Data set [2] can be described thus: Storage stability of aqueous liquid compositions of fludrocortisone acetate (Example 1), HPLC. It is filed as physicochemical. Conditions: conclusion from Tables 1a-1c, 40° C., 75% RH, three months. On the procedure:
Storage conditions of temperature (40° C.) and relative humidity (75%) applied for a period of three months. Quantification of fludrocortisone acetate and its degradation impurities was performed by HPLC.

Turning to `CC(=O)OCC(=O)[C@@]1(O)CC[C@H]2[C@@H]3CCC4=CC(=O)CC[C@]4(C)[C@@]3(F)[C@@H](O)C[C@@]21C` [Fludrocortisone acetate], the glucocorticoid potency in data set [1] is recorded as 10 times. Further, the “stability of fludrocortisone acetate in aqueous compositions” value in data set [2] was “unstable and easily hydrolyzed”.

Source of the values: patent publication US11771706B2, “Oral solutions comprising fludrocortisone acetate” (LABOMED PHARMACEUTICAL COMPANY S.A., priority 2020, dated 2023).
